The source of these data is PMC11530130, “Peripherally restricted PICK1 inhibitor mPD5 ameliorates pain behaviors in murine inflammatory and neuropathic pain models” (JCI Insight, 2024).

SMILES strings stand for the structures. Where “and” joins values, the source holds several entries; their conditions need not be identical. Equal values may be shown once.

This series has as its system naive mice. Kind of series: Conditioned place preference (CPP). It counts as in vivo, mouse. The note with it: for locomotion during conditioning compared with PBS / time in the drug-paired compartment during the posttest compared with PBS: naive mice. As to the method:
compartment and that a single exposure of psychostimulants in the grey compartment sufficiently changes the preference towards that compartment (9-11). For further details of the setup, we refer to (10). Experiments lasted three days with exposure sessions on days one and two and a preference test on day three. On each day, animals were moved from the housing facility to the experimental room and allowed to acclimatize for at least 60 min before initiation of the experiment. mPD5 was paired with the grey compartment, known to be the least preferred compartment (10, 11). All mice from a cage were tested at the same time, but not all were given the same treatment. Mice were weighed and injected s.c. with PBS or 30 μmol/kg mPD5. For the sePP on CFA-injected mice, the injury was induced as described in “Induction of inflammatory pain (CFA model)”-section. sePP was run on day 3-5 after CFA-injection, and von Frey was performed on days 0, 2, and 5 as described in the “Mechanically-evoked pain (von Frey)”-section.
Conditioned place preference.
CPP was performed in Med-Associates square behavioral chambers fitted with beam-break movement detection. Chambers are split in two (27.3 x 13.5 cm each) with a red Plexiglas wall (allowing penetrance of the beams) and a predictable-preference design. Least-preferred compartment: white walls + floor and a transparent lid. Preferred compartment: horizontal grey and black stripes on the wall and lid with a light grey upside-down Lego® floor. Mice can freely move between the two compartments through a 4x4 cm opening in the separating wall during pretest and posttest but are confined to one compartment during conditionings.
Pretest (DAY 1): To test the basal preference of the mice, they were placed in the chamber to freely move between the two compartments for 30 min. Time spent in each compartment was […]
compartment was used to define three even groups.
Conditioning (DAY 2-9): Mice were injected s.c. with PBS, morphine (10 mg/kg) (RH Pharmacy, Denmark, Vnr. 475249), or 10 μmol/kg mPD5 immediately before being placed in and confined to the appropriate compartment for 40 min. Drug was paired to the least-preferred compartment, conditioning was alternated so that mice were never placed in the same compartment two days in a row, and the day on which they were exposed to drug was […]
Preference test (DAY 10): Mice were allowed to freely move between the two compartments […]
Ultrasonic vocalisation (USV) recordings.
Mice were left in Med-Associates square behavioral chambers (27 cm x 27 cm) to freely roam around for 60 min, four days in a row. The first two days were for habituation, but on the third and fourth days, USV recordings were performed using an Avisoft UltraSoundGate 416Hb recording interface (Model CM16-CMPA, Avisoft Bioacoustics, Germany) at a sampling rate of 250,000 Hz in 16-bit format kindly loaned by Morgan Thomsen and Simone Tonetto (Department of Neuroscience, University of Copenhagen, Copenhagen). On day three, both control and SNI mice were placed directly in the chambers and recorded for 60 min. On day four, control mice were injected s.c. with PBS, and SNI mice were injected with either 10 μmol/kg mPD5 or PBS immediately before being placed in the chambers and recorded for 60 min. The recordings were analyzed using the Avisoft SASLab Pro software (Version 5.02.07, Avisoft Bioacoustics) as described in (12), applying a fast fourier transformation (FFT) (1024 FTT length, 100% frame size, Blackman window, and 87.5% time window overlap).
Spectrograms were produced at a frequency resolution of 244 Hz and a time resolution of 0.512 ms. Spectrogram analysis was performed using an automatic whistle-tracking algorithm with an element separation threshold of -45 dB, 1 ms minimal duration, and a hold time of 10 ms.

Take `CN1CC[C@]23c4c5ccc(O)c4O[C@H]2[C@@H](O)C=C[C@H]3[C@H]1C5` [morphine]: the “Conditioned place preference, Fig 6O, individual mice” value (10 mg/kg) was 641.2 and 758.05 and 523.1 and 617.25 and 422.75 and 543.85 and 370.9 and 516.75. Also, the “CPP conditioning session value, Fig 6N, individual mice” value is, setting by setting: (Cond1, 10 mg/kg) 9137.98 and 12057.9 and 7914.76 and 12165.9 and 13969.3 and 7487.52 and 2666.42 and 10528.9; (Cond2, 10 mg/kg) 15370.1 and 15969.7 and 11493.6 and 16698.2 and 17811.8 and 8242.22 and 9139.38 and 16599.9; (Cond3, 10 mg/kg) 15699.6 and 17306.6 and 14219.9 and 18863.2 and 19954.9 and 11799.1 and 7739.36 and 18695.7; (Cond4, 10 mg/kg) 14707.1 and 15254.9 and 15074.4 and 17950.9 and 21599.6 and 11535.1 and 8924.2 and 17697.5. Besides, the “locomotion during conditioning compared with PBS” value (s.c. 10 mg/kg) is “significantly increased locomotion”. Besides, under “s.c. 10 mg/kg”, the “time in the drug-paired compartment during the posttest compared with PBS” value is “significantly more time in the drug-paired compartment”.

For the molecule `CCCCCCCCCCCCCC(=O)N(CCOCCOCCC(=O)N[C@@H](Cc1c[nH]cn1)C(=O)N[C@@H](Cc1c[nH]c2ccccc12)C(=O)N[C@@H](CC(C)C)C(=O)N[C@@H](CCCCN)C(=O)N[C@H](C(=O)O)C(C)C)CCOCCOCCC(=O)N[C@@H](Cc1c[nH]cn1)C(=O)N[C@@H](Cc1c[nH]c2ccccc12)C(=O)N[C@@H](CC(C)C)C(=O)N[C@@H](CCCCN)C(=O)N[C@H](C(=O)O)C(C)C` [mPD5, myristoyl-NPEG4-(HWLKV)2], the “Conditioned place preference, Fig 6O, individual mice” value (10 umol/kg) is 422.4 and 657.8 and 145.75 and 377.8 and 709.7 and 623.7 and 240.55 and 244.05. Moreover, the “CPP conditioning session value, Fig 6N, individual mice” value reads like this: (Cond1, 10 umol/kg) 2308.61 and 1809.85 and 2224.56 and 2674.86 and 871.493 and 1226.84 and 1378.23 and 2217.21; (Cond2, 10 umol/kg) 1180.49 and 1059.56 and 1212.87 and 2147.54 and 783.988 and 1076.18 and 1174.28 and 2455.85; (Cond3, 10 umol/kg) 1906.76 and 766.515 and 1139.87 and 2374.29 and 1205.41 and 1378.46 and 1356.35 and 1697.51; (Cond4, 10 umol/kg) 2079.11 and 1457.65 and 2495.22 and 2149.64 and 1597.67 and 2463.25 and 958.529 and 1951.51. The “locomotion during conditioning compared with PBS” value (s.c. 10 μmol/kg) is on record as “did not affect locomotion”. Moreover, the “time in the drug-paired compartment during the posttest compared with PBS” value (s.c. 10 μmol/kg) is reported as “did not”.
